Data set [1] concerns IRS1. Put plainly: IRS1 degradation / protein stability in C2C12 myotubes (Western blotting). It counts as cell-based, mouse. Particulars: for IRS1 degradation upon treatment: increasing concentration, along with protein synthesis inhibitor Emetin, dose-dependent. The procedure:
Differentiated C2C12 myotubes are treated with increasing concentration of IGF1 or dexmethasome (DEX), a glucocorticoid that can lead to muscle atrophy, along with protein synthesis inhibitor Emetin (Eme). […] In C2C12 myotubes, IRS1 is rapidly degraded upon IGF1 treatment with a half-life of around 2 hours (FIGS. 4B and 4E).
Cells are washed twice with warm serum free DMEM and starved in serum free DMEM for 4 hours with an exchange of fresh medium in the middle. Then the signaling inhibitors are added to pretreat cells for 30 min before incubation with freshly prepared inhibitors with 10 nM IGF1 (the R3 form, Sigma, St. Louis, Mo.) or 10 μM Emetin (Sigma, St. Louis, Mo.) or 20 μM MG132 (Alexis Biochemicals, Carlsbad, Calif.) as specified for an additional 5 hours. Cells are rinsed two times with ice-cold PBS and harvested in ice-cold RIPA buffer with 10 μM MG132 and protease/phosphatase inhibitors tablets (Roche, Basel, Switzerland). Cell lysates are rotated at 4° C. for at least one hour, and spun for 10 min at 16,000×g in a micro centrifuge at 4° C. Protein concentrations of the supernatants are determined by BCA Protein Assay Kit (Pierce/Thermo Fisher Scientific, Rockford, Ill.). Equal amounts of proteins (10-20 μg) are loaded per lane on 4-12% Bis-Tris gels (Invitrogen, Carlsbad, Calif.) and transferred onto PVDF membranes (Millipore, Billerica, Mass.). Membranes are blocked in 10% (w/v) milk in TBST for 1 hour at room temperature, followed by incubation with primary antibody in TBST with 5% BSA at 4° C. for overnight. Secondary antibodies are incubated with membranes at room temperature for 1 hour. Immunoreactivity is detected by ECL and exposed to film or Kodak Image Station 4000R (Eastman Kodak Company, Rochester, N.Y.). Densitometry is analyzed using Kodak Molecular Imaging software, version 4.0.
Cells are washed twice with warm serum-free DMEM and starved in serum-free DMEM for 4 hours with an exchange of fresh medium in the middle. At time zero, 10 μM Emetin, or 100 μg/ml of cycloheximide, or 10 nM IGF1, or 20 μM MG132 are added to cells as specified. At the indicated time intervals, cells are rinsed twice with PBS and harvested in ice-cold RIPA buffer with 10 μM MG132 and protease/phosphatase inhibitors. Cell lysates are rotated at 4° C. for at least one hour, and spun for 10 min at 16,000×g in a micro centrifuge at 4° C. The supernatants are analyzed by western blotting.
A general note: Immunoblotting shows a protein as a band on a membrane.

In data set [2] the test system is IRS1. Put plainly: In-vivo ubiquitination assay and immunoprecipitation of IRS1 in C2C12 myotubes. It counts as cell-based, mouse. The conditions noted are these: C2C12 myotubes overexpressing his-myc tagged ubiquitin, 10 nM IGF1. The procedure:
Since ubiquitinated proteins are rapidly degraded in cells, in order to detect ubiquitinated IRS1 protein in the experiment shown in FIG. 4C, C2C12 myotubes are infected with an adenovirus overexpressing his-myc tagged ubiquitin and incubated with IGF1 along with MG132 or an isopeptidase inhibitor G5. IRS1 is immunoprecipitated with the rabbit polyclonal anti-IRS1 antibody (lanes 6, 8, 10, 12) or non-specific IgG (lanes 5, 7, 9, 11) as control. Poly-ubiquitination is detected with monoclonal anti-myc antibody against the his-myc tagged ubiquitin and is found to be specifically immunoprecipitated with IRS1 (FIG. 4C, upper panel). […] Note that in the upper panel of FIG. 4C, G5 treatment also causes an upper shift of his-myc tagged ubiquitin in comparison to MG132 treatment alone (compare lane 10 to lane 8). In agreement with the induced degradation of IRS1 upon IGF1 treatment, poly-ubiquitinated IRS1 also increases with IGF1 treatment (FIG. 4D, upper panel) despite that the total amount of ubiquitinated proteins in cells even decreased a little (FIG. 4D, lower panel).
A His-myc-ubiquitin adenoviral expression constructs are sent to Welgen Inc. (Worcester, Mass.) for production and purification. […] Protein concentration in the supernatant is determined by BCA analysis. […] An aliquot (20 μg) of the lysate is analyzed by Western blotting along with 100% of the eluate.

A further data set has as its system Fbxo40. The experiment in a line: Fbxo40 protein level after MG132 incubation (co-immunoprecipitation experiment, C2C12 myotubes). In kind it is cell-based, mouse. The conditions noted are these: 20 μM MG132. The source says: Ye et al. 2007 Gene 404: 53-60. We survey the FirstChoice Human Total RNA Panel by quantitative real-time PCR and find that Fbxo40 is highly expressed in heart and muscle (FIG. 3). Furthermore, its mRNA (FIG. 6B) and protein (FIG. 8A) is induced during differentiation of C2C12 cells, which coincides with the accelerated degradation of IRS1 in C2C12 myotubes. IRS1 and Rbx1 can be co-immunoprecipitated with antibody against Fbxo40 (FIG. 6C). […] We also use this immunoprecipitated Fbxo40-Rbx1 complex to ubiquitinate recombinant IRS1 in-vitro and find that IRS1 can be ubiquitinated in a time-dependent manner (FIG. 6D). In this experiment, we include six control reactions. The first four controls are the reactions carried out at 30° C. for 90 min with the omission of E1, or E2 (UbCH5c), or His6-Biotin-N-terminal Ubiquitin, or recombinant IRS1 respectively. The last two controls are full reactions carried out without immunoprecipitated Fbxo40 (with beads incubated with lysate without IgG or with nonspecific rabbit IgG). Poly-ubiquitinated IRS1 can be observed in full reactions after 60 min or 90 min at 30° C.
Alternatively, in the experiment of IRS1 and Rbx1 Co-Immunoprecipitation with Fbxo40, day 3 C2C12 myotubes are starved and treated with 10 nM IGF1 or 20 μM MG132 as described above. […]

Data set [3] addresses purified recombinant IRS1 protein (Millipore).

Where a SMILES comes first, the peptide text is derived from it. The star is where a group is joined. Cbz = O=C(OCc1ccccc1)*

purified recombinant IRS1 protein (Millipore), sequence (P35568 whole entry): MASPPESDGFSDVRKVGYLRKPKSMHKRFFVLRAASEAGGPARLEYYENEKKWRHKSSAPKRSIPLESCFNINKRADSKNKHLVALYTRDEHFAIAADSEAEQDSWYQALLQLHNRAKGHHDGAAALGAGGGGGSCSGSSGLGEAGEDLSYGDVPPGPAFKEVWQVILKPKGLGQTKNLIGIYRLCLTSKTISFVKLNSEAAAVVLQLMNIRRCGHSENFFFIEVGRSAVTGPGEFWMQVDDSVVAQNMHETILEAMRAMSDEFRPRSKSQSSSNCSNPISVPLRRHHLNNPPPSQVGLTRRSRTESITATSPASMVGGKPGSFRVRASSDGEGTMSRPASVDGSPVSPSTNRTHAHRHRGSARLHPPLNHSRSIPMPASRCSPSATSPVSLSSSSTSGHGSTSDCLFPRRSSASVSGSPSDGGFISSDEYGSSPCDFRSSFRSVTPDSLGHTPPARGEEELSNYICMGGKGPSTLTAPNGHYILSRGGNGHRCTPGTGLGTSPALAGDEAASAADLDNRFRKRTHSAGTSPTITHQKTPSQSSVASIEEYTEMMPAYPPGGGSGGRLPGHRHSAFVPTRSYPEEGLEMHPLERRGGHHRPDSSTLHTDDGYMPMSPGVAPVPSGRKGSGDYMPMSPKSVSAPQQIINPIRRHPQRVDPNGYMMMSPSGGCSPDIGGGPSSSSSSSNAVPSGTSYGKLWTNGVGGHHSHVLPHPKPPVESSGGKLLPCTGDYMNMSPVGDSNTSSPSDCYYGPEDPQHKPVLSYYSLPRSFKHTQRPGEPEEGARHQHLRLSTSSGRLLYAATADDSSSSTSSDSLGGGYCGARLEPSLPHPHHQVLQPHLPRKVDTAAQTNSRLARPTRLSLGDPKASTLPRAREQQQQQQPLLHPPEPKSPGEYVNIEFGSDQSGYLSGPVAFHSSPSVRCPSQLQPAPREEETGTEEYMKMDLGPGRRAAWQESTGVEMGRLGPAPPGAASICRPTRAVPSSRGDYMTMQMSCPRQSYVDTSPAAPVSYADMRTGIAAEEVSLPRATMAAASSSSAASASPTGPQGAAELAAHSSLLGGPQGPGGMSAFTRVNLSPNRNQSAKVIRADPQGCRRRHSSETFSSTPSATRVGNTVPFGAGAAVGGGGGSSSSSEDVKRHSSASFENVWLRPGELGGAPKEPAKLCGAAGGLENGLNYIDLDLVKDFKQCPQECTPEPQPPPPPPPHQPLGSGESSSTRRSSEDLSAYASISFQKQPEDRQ

Consider `C[C@@H]1C[C@H]2[C@@H]3CCC4=CC(=O)C=C[C@]4(C)[C@@]3(F)[C@@H](O)C[C@]2(C)[C@@]1(O)C(=O)CO` [DEX, dexmethasome, reference compound], for which the “IRS1 degradation upon treatment” value in the data set on IRS1 [1] is “not”.

For insulin-like growth factor-1 (IGF1), the “half-life of IRS1 upon IGF1 treatment” value with IRS1 [1] (10 nM IGF1) is “around 2 hours”. In the data set on IRS1 [1] (IGF1 alone (no Emetin), slower kinetics), the “protein level of IRS1 in cells treated with IGF1 alone” value is on record as “decreases”. In the data set on IRS1 [1], the “IRS1 degradation upon treatment” value is on record as “IRS1 is degraded”. In addition, the “poly-ubiquitinated IRS1” value with IRS1 [2] is on record as “increases”.

`CC(C)C[C@@H](C=O)NC(=O)[C@H](CC(C)C)NC(=O)[C@H](CC(C)C)NC(=O)OCc1ccccc1` [MG132, reference compound] (Cbz-Leu-Leu-Leu-aldehyde): in the data set with Fbxo40, the “Fbxo40 protein level after incubation with MG132” value is reported as “increases”. For the same molecule, the “stabilization of IRS1 protein” value with IRS1 [1] (IGF1 treatment, 20 μM MG132) was “substantially stabilizes”.

B1: Fbxo40, endogenous in C2C12 myotubes (protein)
chain: MGRARKPPPALHRHCEGCFNRHCHVPVEPSVSCLVISCHLLCGATFHMCKESEHTLLCPLEQVPCLNSEYGCPLSMARHKLAKHLQVCPASVVCCSMEWIRWPNVDSETFLHENIMKETPSEECLDTALALQDQKVLFRSLKMVELFPETRDATEEEPDMNGDTSWEETGGAVGGVDARLAPNSCLPATSRQMMELSQEERDALAKTKEGMDLDKFGKWESMFSKEHAASVLTGSLGKSEDKNGDVAGKEQCSSNVRIGDAEGSAERRGPQESQKSQELPATMEMTGLAPWQDGVLERLKTAVDAKDYNMYLVHNGRMLIHFGQMPACTPKERDFVYGNLEAQEVKTVYTFKIPVSYCGKRARLGDAMLKCRPSEHKAVDTSDLGISVEDLPKSDLIKTTLQCALERELKGHVISESRSIDGLFMDLATQTYNFEPEQFSSETVLADLLGTAQPGGLHVELHSECVTRRHNKSSSAFTFTCNKFFRRDEFPLHFKNVHTDIQSSLDGWFQHRCPLAYLGCTFVQNHFRPPGQKAKVIYSQELKTFAIKPEVAPELSEKWKSDHLSGRDGKSLNSLTSLPLEVLQYIAGFLDSISLSQLSQVSVLMRNICATLLQERGMVLSQWKKKRYSHGGTSWKVHNQIWQFSSLFSKINSWEFNDVTSMSEHLKTCPFNIVERKTDPIRLTSMCQPQEKARESLVSTFRARPRGRHF
For B1, the “in-vitro ubiquitination of recombinant IRS1 (streptavidin-HRP blot of His6-Biotin-ubiquitin)” value in data set [3] is listed as “IRS1 can be ubiquitinated in a time-dependent manner”.
